According to publication PMC6911004, “Fragment-based screening identifies molecules targeting the substrate-binding ankyrin repeat domains of tankyrase” (Scientific Reports, 2019):

Assays:
[1] = molecular target: T1, TNKS2 ARC5 (Homo sapiens, UniProt Q9H2K2); test: Differential scanning fluorimetry (DSF, thermal shift); type: binding; details: fragment 500 μM
T1 construct: followed by TNKS2 ARC5 (1 μL, 100 μM stock); His6-GST; made in house; host or cells: E. coli
Experimental: Therefore, we chose TNKS2 ARC5 for screening by DSF, anticipating the largest signal window for measuring changes in Tm upon fragment binding.
We screened 1869 compounds in duplicate at a concentration of 500 μM, which we considered a reasonable compromise between having a sufficiently high concentration to identify weak binders while minimising the likelihood of false positives through fragment precipitation/aggregation and non-specific binding. The final DMSO concentration was 5%. We calculated melting temperatures using both the inflection point and the maximum peak of first derivative data methods. Both methods generally agreed, unless the melt curve was biphasic or misshapen, with slightly lower variability for the […] Tm determination method (see Materials and Methods for experimental and analysis details).
We determined the melting temperature for the unbound ARC (Tm, 0) from the mean of 12 reference melting curves per plate, with 5% DMSO only. We calculated the change in melting temperature (ΔTm) by subtracting the mean Tm, 0 from Tm, compound. We tested compounds in duplicate, defining fragments as hits if they conferred a ΔTm outside two standard deviations (2σ) from the mean, in one or both replicates. To check for consistency between plates, we ran triplicate peptide controls; however, we excluded peptide ΔTm values from the calculation of the mean ΔTm to avoid skewing the results. We observed mean ΔTm values (IP/1st derivative methods) of −0.127/−0.331 °C and σ as 0.997/1.19 °C. A hit cut-off of 2σ gave absolute shifts of +1.87/+2.05 °C for compounds that stabilised and −2.13/−2.71 °C for compounds that destabilised the ARC (Fig. 2B).
For the screen, a C1000 thermal cycler (Bio-Rad) was used to record melt curves. SYPRO Orange was purchased as a 5000 × stock in DMSO from Sigma Aldrich. The ICR fragment library was available as 100 mM stocks in DMSO, and dispensed (25 nL) using an ECHO acoustic liquid handling system into white 384-well PCR plates (Framestar, 4titude). Wells were backfilled with DMSO (225 nL). Buffer (2.75 μL, 25 mM HEPES-NaOH pH 7.5, 100 mM NaCl, 2 mM TCEP) was added, followed by TNKS2 ARC5 (1 μL, 100 μM stock) and then SYPRO orange dye (1 μL, 25×). The plate was centrifuged after the addition of each reagent (1 min, 1000 × g). Final assay concentrations were as follows: TNKS2 ARC5 (20 μM); fragment (500 μM); SYPRO Orange dye (5×); DMSO (5% v/v) in a total volume of 5 μL. Peptide control wells (3BP2 TBM 16-mer, 200 μM, sequence LPHLQRSPPDGQSFRSW with C-terminal tryptophan added for photometric concentration measurements, the N-terminus acetylated and the C-terminus amide-capped) were plated in triplicate, and there were 12 blank wells per plate, with DMSO only (250 nL, 5% v/v). Melt curves were recorded from 20–95 °C, with the temperature ramped by 0.5 °C every 15 s. Data were analysed using Vortex (Dotmatics) software and melting temperatures calculated from both the inflection point and the maximum peak of 1st-derivative data. Data points were excluded if the melt curve was poor, i.e., if there was no fluorescence signal above baseline, high fluorescence intensity throughout, or if the melt curve was shallow (<1000 rfu difference between baseline and peak maximum). The unbound melting temperature was determined from the mean of 12 reference melting curves, with 5% DMSO only. The change in melting temperature (ΔTm) was calculated by subtracting the mean Tm, 0 from Tm, compound. Compounds were tested in duplicate, and fragments were defined as hits if they gave a ΔTm outwith 2 σ from the mean in one or both replicates.
For the experiment shown in Fig. 2A, ARC and 3BP2 TBM peptide concentrations were 20 and 200 μM, respectively, in 50 mM HEPES-NaOH pH 7.5, 100 mM NaCl, 2 mM TCEP and a total volume of 25 μL. SYPRO Orange was added at 5×. Data were recorded from 4–95 °C, with the temperature ramped by 0.5 °C every 15 s, using a CFX384 thermal cycler (Bio-Rad). […]

[2] = molecular target: T2, TNKS2 ARC4 (Homo sapiens, UniProt Q9H2K2); test: Primary fragment screen by T2 relaxation-edited ligand-observed NMR (cocktails of four); type: binding; details: fragments 1 mM each, 35 μM protein
T2 construct: The cell was filled with TNKS2 ARC4 (488–649); His6-GST; made in house; host or cells: E. coli
T2 sequence (Q9H2K2 488-649): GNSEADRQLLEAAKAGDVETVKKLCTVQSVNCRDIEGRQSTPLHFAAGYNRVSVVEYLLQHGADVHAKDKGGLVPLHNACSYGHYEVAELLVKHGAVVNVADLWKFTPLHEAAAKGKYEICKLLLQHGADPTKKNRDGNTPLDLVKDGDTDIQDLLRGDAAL
Text: The hit rate for compounds confirmed to bind TNKS2 ARC5 as evaluated by NMR was relatively low, at 0.78%, and only 0.16% for fragments binding TNKS2 ARC4 and 5 competitively with a TBM peptide. Different screening assays often identify distinct hit fragments. There is no consensus on the most appropriate assays to use for fragment screening, especially against challenging targets such as protein-protein interactions. Often several orthogonal methods are used in series to narrow down fragment hits, or a combination of biophysical and biochemical assays to exclude false positives and identify binders that modulate protein activity. We therefore carried out an additional primary screen using T2 relaxation-edited ligand-observed NMR on TNKS2 ARC4, probing a subset of molecules from the ICR fragment library that was compatible with NMR. […]
Data were processed using Bruker Topsin 3.14, then analysed using the MNova Screen software. […] The relative peak intensity change (I) was calculated by Eq. 1 for all peaks in the 5.5–9.5 ppm region, for each compound.1 I=(Iblank−Iprotein)/Iblank
The average percentage change was then calculated, and compounds designated a hit if the signal was reduced by ≥26% (2 σ). […] Protein ^1H spectra of TNKS2 ARC4 (200 μM) were measured at 24 h intervals to ensure protein stability and folding for the duration of the screening experiments.

T1 sequence (Q9H2K2 641-800): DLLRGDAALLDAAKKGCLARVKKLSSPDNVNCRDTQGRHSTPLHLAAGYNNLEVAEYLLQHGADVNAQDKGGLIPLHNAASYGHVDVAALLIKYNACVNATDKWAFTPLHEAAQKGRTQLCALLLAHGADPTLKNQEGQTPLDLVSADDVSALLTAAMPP

hit in DSF primary screen [1]	hit in NMR primary screen [2]	Compound
hits	hits	CCOc1cccc(-c2cc(N)[nH]n2)c1 [compound 6]
hits	hits	Nc1nc(Nc2ccccc2)nc2ccccc12 [compound 7]
